Measurements: patent US20070128217A1 (priority 2003, published 2007)

Tests used:
[1] = system: antibodies in sera from SARS patients (sera 1a, 1b, 2, 6, 37, 62, London, SARS-yellow, SARS-green); format: binding, human; design: Binding of serum 6 to linear peptides of protein X1 of SARS-CoV Urbani / Binding of serum 37 to linear peptides of protein X1 of SARS-CoV Urbani / Binding of serum 6 to looped/cyclic peptide (PEPSCAN-ELISA) / Binding of serum 37 to looped/cyclic peptide (PEPSCAN-ELISA) / Binding of serum 37 to looped/cyclic peptides of protein X1 of SARS-CoV Urbani / Binding of serum 6 to linear peptides of protein X2 / Binding of serum 37 to linear peptides of protein X2 / Binding of serum 37 to looped/cyclic peptides of protein X2 of SARS-CoV Urbani / Binding of serum 6 to linear peptides of protein M of SARS-CoV Urbani / Binding of serum 37 to linear peptides of protein M of SARS-CoV Urbani / Binding of serum 6 to looped/cyclic peptides of protein M of SARS-CoV Urbani / Binding of serum 37 to looped/cyclic peptides of protein M of SARS-CoV Urbani / Binding of serum 6 to linear peptides of protein X3 of SARS-CoV Urbani / Binding of serum 37 to linear peptides of protein X3 of SARS-CoV Urbani / Binding of serum 37 to looped/cyclic peptides of protein X3 of SARS-CoV Urbani / Binding of serum 6 to linear peptides of protein X4 of SARS-CoV Urbani / Binding of serum 37 to linear peptides of protein X4 of SARS-CoV Urbani / Binding of serum 37 to looped/cyclic peptides of protein X4 of SARS-CoV Urbani / Binding of serum 6 to linear peptides of protein X5 of SARS-CoV Urbani / Binding of serum 37 to linear peptides of protein X5 of SARS-CoV Urbani / Binding of serum 37 to looped/cyclic peptides of protein X5 of SARS-CoV Urbani / Binding of serum 6 to linear peptides of protein N of SARS-CoV Urbani / Binding of serum 37 to linear peptides of protein N of SARS-CoV Urbani / Binding of serum 6 to linear peptide (PEPSCAN-ELISA) / Binding of serum 1a to looped/cyclic peptides of protein N of SARS-CoV Urbani / Binding of serum 1b to looped/cyclic peptides of protein N of SARS-CoV Urbani / Binding of serum 2 to looped/cyclic peptides of protein N of SARS-CoV Urbani / Binding of serum 6 to looped/cyclic peptides of protein N of SARS-CoV Urbani / Binding of serum 37 to looped/cyclic peptides of protein N of SARS-CoV Urbani / Binding of serum 62 to looped/cyclic peptides of protein N of SARS-CoV Urbani / Binding of serum London to looped/cyclic peptides of protein N of SARS-CoV Urbani / Binding of serum SARS-green to looped/cyclic peptides of protein N of SARS-CoV Urbani: unit not given here
[2] = system: control sera (pooled serum of ten healthy LUMC hospital workers; commercial negative donor pooled serum from the Dutch bloodbank); format: binding, human; design: Binding of Control serum LUMC to linear peptides / Binding of Control serum Blood-bank to linear peptides / Binding of Control serum LUMC to looped peptides / Binding of Control Serum Blood-Bank to Looped peptides / Binding of Control serum LUMC to linear peptides of the protein M of SARS-CoV Urbani / Binding of Control serum Blood-bank to linear peptides of the protein M of SARS-CoV Urbani / Binding of Control serum LUMC to looped peptides of the protein M of SARS-CoV Urbani / Binding of Control Serum Blood-Bank to Looped peptides of the protein M of SARS-CoV Urbani: unit not given here
[3] = system: rabbit serum obtained by immunizing a rabbit with the SARS-CoV strain Frankfurt 1; format: binding; design: Binding of a rabbit serum to linear peptides / Binding of a rabbit serum to looped peptides / Rabbit serum linear peptides / Rabbit serum looped peptides / Binding of a rabbit serum to linear peptides of protein N of SARS-CoV Urbani (Rabbit serum linear peptides) / Binding of a rabbit serum to looped/cyclic peptides of protein N of SARS-CoV Urbani (Rabbit serum looped peptides): unit not given here
[4] = system: recombinant human anti-SARS-CoV antibody 03-018; format: binding; design: Binding of antibody 03-018 to linear peptides of the N protein of SARS-CoV Urbani / Binding of antibody 03-018 to looped/cyclic peptides of the N protein of SARS-CoV Urbani: unit not given here

GPTDSTDNNQNGGRN
Binding of serum 1a to linear peptides of protein N of SARS-CoV Urbani [1]: 0.3 | Binding of serum 1a to looped/cyclic peptides of protein N of SARS-CoV Urbani [1]: 0.4 | Binding of serum 1b to linear peptides of protein N of SARS-CoV Urbani [1]: 0.2 | Binding of serum 1b to looped/cyclic peptides of protein N of SARS-CoV Urbani [1]: 0.4 | Binding of serum 2 to linear peptides of protein N of SARS-CoV Urbani [1]: 0.4 | Binding of serum 2 to looped/cyclic peptides of protein N of SARS-CoV Urbani [1]: 0.6 | Binding of serum 6 to linear peptides of protein N of SARS-CoV Urbani [1]: 0.2 | Binding of serum 6 to looped/cyclic peptides of protein N of SARS-CoV Urbani [1]: 0.3 | Binding of serum 37 to linear peptides of protein N of SARS-CoV Urbani [1]: 0.8 | Binding of serum 37 to looped/cyclic peptides of protein N of SARS-CoV Urbani [1]: 0.9 | Binding of serum 62 to linear peptides of protein N of SARS-CoV Urbani [1]: 0.6 | Binding of serum 62 to looped/cyclic peptides of protein N of SARS-CoV Urbani [1]: 0.6 | Binding of serum London to linear peptides of protein N of SARS-CoV Urbani [1]: 0.6 | Binding of serum London to looped/cyclic peptides of protein N of SARS-CoV Urbani [1]: 0.5 | Binding of serum SARS-green to linear peptides of protein N of SARS-CoV Urbani [1]: 0.6 | Binding of serum SARS-green to looped/cyclic peptides of protein N of SARS-CoV Urbani [1]: 1.4 | Binding of serum SARS-yellow to linear peptides of protein N of SARS-CoV Urbani [1]: 0.6 | Binding of serum SARS-yellow to looped/cyclic peptides of protein N of SARS-CoV Urbani [1]: 0.4 | Binding of Control Serum Blood-Bank to Looped peptides [2]: 0.6 | Binding of Control serum Blood-bank to linear peptides [2]: 0.8 | Binding of Control serum LUMC to linear peptides [2]: 0.7 | Binding of Control serum LUMC to looped peptides [2]: 0.5 | Binding of a rabbit serum to linear peptides of protein N of SARS-CoV Urbani (Rabbit serum linear peptides) [3]: 0.1 | Binding of a rabbit serum to looped/cyclic peptides of protein N of SARS-CoV Urbani (Rabbit serum looped peptides) [3]: 0.4 | Binding of antibody 03-018 to linear peptides of the N protein of SARS-CoV Urbani [4]: 0.2 | Binding of antibody 03-018 to looped/cyclic peptides of the N protein of SARS-CoV Urbani [4]: 0.2

GQGVPINTNSGPDDQ
Binding of serum 1a to linear peptides of protein N of SARS-CoV Urbani [1]: 0.3 | Binding of serum 1a to looped/cyclic peptides of protein N of SARS-CoV Urbani [1]: 0.2 | Binding of serum 1b to linear peptides of protein N of SARS-CoV Urbani [1]: 0.1 | Binding of serum 1b to looped/cyclic peptides of protein N of SARS-CoV Urbani [1]: 0.1 | Binding of serum 2 to linear peptides of protein N of SARS-CoV Urbani [1]: 0.2 | Binding of serum 2 to looped/cyclic peptides of protein N of SARS-CoV Urbani [1]: 0.3 | Binding of serum 6 to linear peptides of protein N of SARS-CoV Urbani [1]: 0.2 | Binding of serum 6 to looped/cyclic peptides of protein N of SARS-CoV Urbani [1]: 0.1 | Binding of serum 37 to linear peptides of protein N of SARS-CoV Urbani [1]: 0.8 | Binding of serum 37 to looped/cyclic peptides of protein N of SARS-CoV Urbani [1]: 0.4 | Binding of serum 62 to linear peptides of protein N of SARS-CoV Urbani [1]: 0.6 | Binding of serum 62 to looped/cyclic peptides of protein N of SARS-CoV Urbani [1]: 0.1 | Binding of serum London to linear peptides of protein N of SARS-CoV Urbani [1]: 0.6 | Binding of serum London to looped/cyclic peptides of protein N of SARS-CoV Urbani [1]: 0.3 | Binding of serum SARS-green to linear peptides of protein N of SARS-CoV Urbani [1]: 0.5 | Binding of serum SARS-green to looped/cyclic peptides of protein N of SARS-CoV Urbani [1]: 0.1 | Binding of serum SARS-yellow to linear peptides of protein N of SARS-CoV Urbani [1]: 0.6 | Binding of serum SARS-yellow to looped/cyclic peptides of protein N of SARS-CoV Urbani [1]: 0.1 | Binding of Control Serum Blood-Bank to Looped peptides [2]: 0.5 | Binding of Control serum Blood-bank to linear peptides [2]: 0.5 | Binding of Control serum LUMC to linear peptides [2]: 0.5 | Binding of Control serum LUMC to looped peptides [2]: 0.3 | Binding of a rabbit serum to linear peptides of protein N of SARS-CoV Urbani (Rabbit serum linear peptides) [3]: 0.1 | Binding of a rabbit serum to looped/cyclic peptides of protein N of SARS-CoV Urbani (Rabbit serum looped peptides) [3]: 0.0 | Binding of antibody 03-018 to linear peptides of the N protein of SARS-CoV Urbani [4]: 0.1 | Binding of antibody 03-018 to looped/cyclic peptides of the N protein of SARS-CoV Urbani [4]: 0.2
